Measured values taken from patent US11987589B2, “Heterocyclic flavone derivatives, compositions, and methods related thereto” (Emory University, priority 2018, dated 2024).
Entries after “also recorded” stand apart in the source; their conditions may differ. Where two headings read alike, the source gives them in different places.

Tests used:
[1] = Microsomal Intrinsic Clearance (mouse); conditions: liver microsomes; for microsomal CLint: Mouse microsomes
[2] = Hepatocyte Stability (human); conditions: hepatocytes
[3] = Microsomal Intrinsic Clearance (human); conditions: liver microsomes; for microsomal CLint: Human microsomes
[4] = Hepatocyte Stability (mouse); conditions: hepatocytes
[5] = human, hepatocytes
[6] = mouse, hepatocytes
[7] = Plasma Stability (mouse); type: in vitro ADME
[8] = Plasma Stability (human); type: in vitro ADME
[9] = in vivo; conditions: mouse; for B/P Ratio, individual animal / Plasma concentration, Mean / Kp at 1 h / Kp at 2 h / Kp at 4 h: male; for Kp at 1 h / Kp at 2 h / Kp at 4 h: B/P Ratio
Protocol: The concentration ratio of brain/plasma was calculated, and PK analysis was performed using a non-compartmental method.

[10] = in vivo; conditions: ICR, mouse, po, 5 mg/kg
Protocol: The compounds were orally administered into wild-type mice or 3×Tg, an Alzheimer's disease (AD) mouse model. […] Pharmacokinetic analysis was performed using non-compartmental methods.

[11] = system: Delta-secretase (AEP, asparagine endopeptidase); test: AEP activation and APP and Tau proteolytic cleavage in 5×FAD mice; type: in vivo, mouse
Protocol: The processing of APP and Tau by AEP was evaluated by western blot.
Delta-secretase (AEP, asparagine endopeptidase) cleaves both APP and Tau, mediating AD pathogenesis. […] To further investigate APP proteolytic cleavage activity by AEP, immunofluorescent co-staining was conducted on 5×FAD brain section with anti-APP C585 and AEP antibodies.

[12] = Water solubility; type: physicochemical
[13] = target: T1, TrkB (Rattus norvegicus, UniProt Q63604); test: TrkB activation in rat TrkB stably transfected SN56 cells (T48), immunoblotting; type: cell-based; conditions: treated 15 min, immunoblotting, read-out: EC50 of p-TrkB 706 and 816 activation
T1 construct: expressed in transfected cells
T1 sequence (Q63604 32-821): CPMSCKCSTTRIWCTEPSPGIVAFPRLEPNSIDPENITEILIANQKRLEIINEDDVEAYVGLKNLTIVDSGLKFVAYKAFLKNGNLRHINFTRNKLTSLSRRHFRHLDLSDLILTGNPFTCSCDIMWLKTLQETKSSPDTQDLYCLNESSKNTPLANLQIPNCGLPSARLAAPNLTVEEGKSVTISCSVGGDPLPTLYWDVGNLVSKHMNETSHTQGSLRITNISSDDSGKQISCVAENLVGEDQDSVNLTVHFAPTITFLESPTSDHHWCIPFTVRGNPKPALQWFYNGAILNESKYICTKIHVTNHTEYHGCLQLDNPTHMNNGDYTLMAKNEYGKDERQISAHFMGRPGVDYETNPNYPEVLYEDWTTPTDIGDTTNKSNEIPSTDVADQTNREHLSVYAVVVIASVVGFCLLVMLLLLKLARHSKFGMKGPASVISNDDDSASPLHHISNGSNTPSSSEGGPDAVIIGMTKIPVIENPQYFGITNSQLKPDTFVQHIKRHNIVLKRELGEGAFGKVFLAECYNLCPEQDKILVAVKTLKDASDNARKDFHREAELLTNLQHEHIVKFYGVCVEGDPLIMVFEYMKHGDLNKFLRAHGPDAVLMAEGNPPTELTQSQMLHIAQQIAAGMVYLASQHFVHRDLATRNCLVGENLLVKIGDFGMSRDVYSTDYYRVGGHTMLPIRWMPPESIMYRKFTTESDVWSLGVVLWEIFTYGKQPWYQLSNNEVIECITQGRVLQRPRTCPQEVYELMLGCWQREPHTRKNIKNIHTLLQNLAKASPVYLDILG

[14] = target: T2, TrkB (Mus musculus, UniProt P15209); test: TrkB activation in brain of 5×FAD mice after chronic oral administration; type: in vivo
T2 construct: from tissue; host or cells: brain (hippocampus) of 5xFAD mice
T2 sequence (P15209 32-821): as the sequence (Q63604 32-821) above, with M3T, T9S, T10A, I32V, K63R, G84S, T153M, I185L, T394S, N770S counted along it
Source text: After 3 months of drug treatment, TrkB activation was monitored in the mouse brain by immunofluorescence with anti-phosphorylated TrkB (p-TrkB) antibody.

[15] = In vitro plasma, hepatocyte and liver microsomal stability assays (summary statement); type: in vitro ADME
[16] = system: IL-6; test: Inflammatory factor IL-6 in 5×FAD mouse brains; type: in vivo
[17] = BBB-PAMPA Permeability; type: in vitro ADME; conditions: Test Conc. 10 μM
[18] = system: Aβ; test: Aβ deposition in 5×FAD mice (immunohistochemistry, thioflavin-S, ELISA); type: in vivo, mouse
Protocol: The deposition of Aβ was tested by immunohistochemistry with anti-AP antibody.

[19] = system: T48 cells; test: Protection from staurosporine (STS)-induced apoptosis, MTT assay, T48 cells; type: cell-based
Protocol: Cytoprotective effects were tested. To examine whether these compounds protect cells from staurosporine (STS)-induced apoptosis, MTT assays were conducted using TrkB stable transfected cells or TrkB deficient SN56 cells.

[20] = system: 5×FAD mice; test: Synaptic loss and plasticity in 5×FAD mice (Golgi staining, electron microscopy, immunoblotting, LTP); type: in vivo, mouse
Protocol: The dendritic spines from apical dendritic layer of the CA1 region were analyzed by Golgi staining. (Scale bar, […]). On top is quantitative analysis of the spine density.
Synaptic loss is believed to be the basis of cognitive impairment in the early phase of Alzheimer's disease. […] The density of dendritic spines along individual dendrites of pyramidal neurons were assessed by Golgi staining. […] Since one dendritic spine can form more than one synapse, the densities of synapse in the CA1 area were quantified in 5×FAD mice brain by electron microscopy. […] Immunoblotting was done using pre-synaptic markers (synaptotagmin) and post-synaptic markers (GluR1, PSD95 and spinophilin).

[21] = system: 5×FAD mice; test: Morris water maze test in 5×FAD mice; type: in vivo, mouse
Protocol: The hippocampus-dependent spatial memory of 5×FAD mice was tested by Morris water maze test. The average latency and swim path length for each of the 5 acquisition days were calculated and plotted. […] The memory recall for the platform location was assessed in the probe trail when the platform was removed, and the mice were allowed to search for 60 s.

[22] = system: TrkB; test: Endogenous TrkB activation in DIV13 primary cortical cultures, immunoblotting; type: cell-based; conditions: 15 min
Protocol: Endogenous TrkB activation in primary neurons were tested in DIV13 primary cortical cultures. The neurons were treated with the two compounds with doses for 15 min. The lysates were analyzed by immunoblotting with antibodies.

[23] = NADPH-dependent CLint, with NADPH
[24] = NADPH-dependent T1/2, Mouse microsomes, with NADPH
[25] = NADPH-free T1/2, Mouse microsomes, NADPH-free
[26] = NADPH-dependent T1/2, Human microsomes, with NADPH
[27] = NADPH-free T1/2, Human microsomes, NADPH-free
[28] = ICR, iv, 2 mg/kg, individual animal

Structure (SMILES): Cc1ncc2n1-c1ccc(Cl)cc1C(c1ccccc1F)=NC2 [Midazolam, reference compound]
- microsomal CLint [1, 23]: 1100 µL/min/mg
- half-life [1, 24]: 2.1 min
- microsomal CLint ([1]; NADPH-free CLint, NADPH-free): < 12.8 µL/min/mg
- half-life [1, 25]: > 180 min
- Avg % Remaining at Last Point [2]: 9.82%
- half-life [2]: 35.7 min
- hepatocyte CLint [2]: 38.8 µL/min/1e6 cells
- microsomal CLint [3, 23]: 511 µL/min/mg
- half-life [3, 26]: 4.52 min
- microsomal CLint ([3]; NADPH-free CLint, NADPH-free): < 12.8 µL/min/mg
- half-life [3, 27]: > 180 min
- Avg % Remaining at Last Point [4]: 34.0%
- half-life [4]: 39.4 min
- hepatocyte CLint [4]: 35.1 µL/min/1e6 cells

Structure (SMILES): O=c1ccc2ccc(O)cc2o1 [7-OH-Coumarin]
- Avg % Remaining at Last Point [5]: 7.17%
- Clearance [5]: 88.5 μl/min/million cells
- Half Life [5]: 15.7 min
- Avg % Remaining at Last Point [6]: 38.8%
- Clearance [6]: 63.2 μl/min/million cells
- Half Life [6]: 21.9 min

Structure (SMILES): CC(C)[N+](C)(CCOC(=O)C1c2ccccc2Oc2ccccc21)C(C)C [Propantheline, reference compound]
- half-life [7]: 22.2 min
- Avg % Remaining at Last Point [8]: 3.15%
- half-life [8]: 23.9 min

Structure (SMILES): N#Cc1ccc(-c2cc(=O)c3ccc4[nH]c(C(F)(F)F)nc4c3o2)cc1 [CF3-CN, 4-(6-oxo-2-(trifluoromethyl)-3,6-dihydrochromeno[7,8-d]imidazol-8-yl)benzonitrile]
- microsomal CLint [1, 23]: < 12.8 µL/min/mg
- half-life [1, 24]: > 180 min
- microsomal CLint ([1]; NADPH-free CLint, NADPH-free): < 12.8 µL/min/mg
- half-life [1, 25]: > 180 min
- Cmax ([9]; ICR, iv, 2 mg/kg): 12700 ng/mL
- Tmax ([9]; ICR, iv, 2 mg/kg): 4.8 min
- B/P Ratio, individual animal ([9]; ICR, iv, 2 mg/kg, 1 h): 0.01
- Plasma concentration, Mean ([9]; ICR, iv, 2 mg/kg, 1 h): 5288.5 ng/mL
- B/P Ratio, individual animal ([9]; ICR, iv, 2 mg/kg, 2 h): 0.01
- Plasma concentration, Mean ([9]; ICR, iv, 2 mg/kg, 2 h): 2154.5 ng/mL
- Plasma concentration, Mean ([9]; ICR, iv, 2 mg/kg, 4 h): 544.8 ng/mL
- Kp at 1 h ([9]; ICR, iv, 2 mg/kg, Mean): 0.01
- Kp at 2 h ([9]; ICR, iv, 2 mg/kg, Mean): 0.01
- Kp at 4 h ([9]; ICR, iv, 2 mg/kg, Mean): 0.02
- Kp at 1 h [9, 28]: 0.02
- Kp at 2 h [9, 28]: 0.01
- Kp at 4 h [9, 28]: 0.02
- passage of the blood-brain barrier [9]: can pass the blood-brain barrier
- AUC [10]: 68500 ng·h/mL
- Avg % Remaining at Last Point [2]: 97.2%
- half-life [2]: > 480 min
- hepatocyte CLint [2]: < 2.9 µL/min/1e6 cells
- Tau N368 staining ([11]; 5×FAD brain section): repressed
- APP C585 immuno-signals ([11]; 5×FAD brain section, immunofluorescent co-staining): strongly inhibited
- AEP activity (enzymatic assay) ([11]; 5×FAD mice, 3 mg/kg): blocked
- AEP expression in Hippocampus ([11]; 5×FAD mice, immunofluorescence): progressively attenuated
- Mature and active AEP (immunoblotting) ([11]; 5×FAD mouse brains): decreased; also recorded: significantly inhibited AEP activation
- AEP-cleaved APP N373, N585 and Tau N368 truncates ([11]; 5×FAD mouse brains, western blot): reduction; also recorded: attenuated Tau and APP cleavage
- microsomal CLint [3, 23]: < 12.8 µL/min/mg
- half-life [3, 26]: > 180 min
- microsomal CLint ([3]; NADPH-free CLint, NADPH-free): < 12.8 µL/min/mg
- half-life [3, 27]: > 180 min
- Avg % Remaining at Last Point [7]: 107%
- half-life [7]: > 480 min
- water solubility (comparison) [12]: more water soluble than RM-CN
- EC50 [13]: 0.0216 µM
- TrkB activation in the hippocampus ([14]; oral 3 mg/kg, anti-p-TrkB Y816 immunofluorescence): provoked TrkB activation in the hippocampus
- total TrkB level in mouse brain ([14]; oral, 3 months of treatment): not total TrkB level were notably elevated
- TrkB activation (p-TrkB signals) in mouse brain ([14]; oral, 3 months of treatment, vs vehicle): markedly activated
- phosphorylation of TrkB receptors and downstream AKT and ERK/MAPK pathways ([14]; oral, 3 months, vs vehicle control): more prominently phosphorylated
- stability (comparison) [15]: more stable than RM-CN
- Avg % Remaining at Last Point [8]: 94.2%
- half-life [8]: > 480 min
- Avg % Remaining at Last Point [4]: 94.8%
- half-life [4]: > 480 min
- hepatocyte CLint [4]: < 2.9 µL/min/1e6 cells
- inflammatory factors IL-6 [16]: repressed
- Pe [17]: 3.09
- recovery at 10 μM [17]: 89.9%
- number of plaques and plaque area fraction ([18]; cortex and hippocampus, vs vehicle control): significantly decreased
- Aβ42 concentrations (ELISA) ([18]; differences not statistically significant): reduction trend
- Aβ deposition (immunohistochemistry) ([18]; oral, vs vehicle group): significantly lower; also recorded: decreases Aβ plaque deposition
- EC50 [19]: 0.0267 µM
- LTP (long-term potentiation) ([20]; fEPSPs induced by 3×TBS, vs vehicle): increased LTP; also recorded: reversed the LTP impairment
- synaptic markers (synaptotagmin, GluR1, PSD95, spinophilin), immunoblotting ([20]; repeated oral administration): reversed the reduction of synaptic markers
- synaptic density (electron microscopy) ([20]; repeated oral administration, CA1 area): remarkably reversed the loss of synaptic density in a dose-dependent way
- density of dendritic spines (Golgi staining) ([20]; repeated oral administration, CA1 region): noticeably rescued; also recorded: prevents or reverses the synaptic loss
- learning impairment, area under curve (AUC) of latency ([21]; Morris water maze, 5 acquisition days): attenuated; also recorded: improves the spatial learning and memory
- AUC of the swim path distance ([21]; Morris water maze, no significant statistic differences): reduction trend
- percentage of time spent in target quadrant ([21]; probe trial, 60 s): significantly higher percentage of time in the target quadrant
- TrkB activation in primary neurons [22]: dose-dependent effect in triggering TrkB activation
